The source of these data is patent publication EP4342530A1, “SORTILIN MODULATORS” (Insusense ApS, priority 2022, dated 2024).

Molecules are shown by their SMILES. pIC50: −log10 of the molar value.

The assay concerns the target T1, h-Sortilin (Homo sapiens, UniProt Q99523).
T1 sequence (Q99523 78-831): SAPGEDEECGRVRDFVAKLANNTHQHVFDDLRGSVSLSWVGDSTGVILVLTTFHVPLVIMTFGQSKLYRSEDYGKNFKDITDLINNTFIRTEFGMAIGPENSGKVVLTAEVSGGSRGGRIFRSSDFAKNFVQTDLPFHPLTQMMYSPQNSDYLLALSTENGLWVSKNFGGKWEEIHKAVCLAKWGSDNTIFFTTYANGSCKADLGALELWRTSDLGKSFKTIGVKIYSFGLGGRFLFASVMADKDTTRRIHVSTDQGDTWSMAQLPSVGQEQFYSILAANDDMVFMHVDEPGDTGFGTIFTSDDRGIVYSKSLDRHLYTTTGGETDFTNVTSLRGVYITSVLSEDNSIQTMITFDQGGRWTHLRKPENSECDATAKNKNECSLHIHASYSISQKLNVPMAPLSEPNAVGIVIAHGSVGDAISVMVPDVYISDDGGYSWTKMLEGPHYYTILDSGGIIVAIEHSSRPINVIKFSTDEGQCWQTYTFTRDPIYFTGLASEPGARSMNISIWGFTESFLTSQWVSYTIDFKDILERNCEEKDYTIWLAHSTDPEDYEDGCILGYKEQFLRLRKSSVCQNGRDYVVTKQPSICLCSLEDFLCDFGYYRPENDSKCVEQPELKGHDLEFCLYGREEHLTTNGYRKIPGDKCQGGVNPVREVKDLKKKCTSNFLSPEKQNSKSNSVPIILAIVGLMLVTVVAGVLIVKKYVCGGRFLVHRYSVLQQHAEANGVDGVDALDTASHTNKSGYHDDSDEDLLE
Description: Neurotensin scintillation proximity assay (displacement of [3H]-neurotensin binding). The note with it: 150 nM 6his-Sortilin, 5 nM [3H]-Neurotensin; average of at least 2 determinations; read-out: IC50 [3H]Neurotensin SPA. How it is done: The exemplified compounds of the invention were tested in a Neurotensin (NTS) scintillation proximity assay (SPA). NTS, which is a 13 amino acid neuropeptide, is a sortilin ligand. The IC50 is a measure of the amount of the compound required to inhibit the binding of NTS to sortilin by 50%. The skilled person will recognise that the lower the IC50 value, the less of the compound needed to achieve the desired effect, and as a result, the chances of undesirable off-target effects are reduced.
Compound affinity was determined by measuring the displacement of [3H]-neurotensin binding to h-Sortilin in SPA format. Total volume of 40 µl in 50 mM HEPES pH 7.4 assay buffer containing 100 mM NaCl, 2.0 mM CaCl2, 0.1% BSA and 0.1% Tween-20. Compound pre-incubation for 30 minutes at room temperature with 150 nM of 6his-Sortilin before 5 nM [3H]-Neurotensin and Ni chelate imaging beads (Perkin Elmer) were added, after 6 hours the plate was read on a ViewLux with 360 s exposure time. Dose-response evaluation of compounds was performed with 8 concentrations of drugs (covering 3 decades). IC50 values were calculated by nonlinear regression using the sigmoid concentration-response (variable slope) using CDD Vault software. All values reported are average of at least 2 determinations.
(Scintillation proximity formats need no separation of bound from free tracer.)
With `CC(C)(C)CCC(N[C@@H](CCO)c1ccccc1)C(=O)O` (mixture of isomers) [Example 39, 2-{[(1S)-3-hydroxy-1-phenylpropyl]amino}-5,5-dimethylhexanoic acid], the pIC50 – broadly, −log10 of the IC50, conventionally taken in molar units – was 6.39. Next, `C[C@H](N[C@@H](CCC(C)(C)C)C(=O)O)c1ccc2c(c1)CCCC2` [Example 12]: 6.21; `CC(C)(C)CC[C@H](NCc1ccc2c(c1)CCNC2)C(=O)O` [Example 15, (S)-5,5-dimethyl-2-(((1,2,3,4-tetrahydroisoquinolin-6-yl)methyl)amino)hexanoic acid]: 6.05. Next, `CN1CCc2ccc(CN[C@@H](CCC(C)(C)C)C(=O)O)cc2C1` [Example 20, (2S)-5,5-dimethyl-2-{[(2-methyl-1,2,3,4-tetrahydroisoquinolin-7-yl)methyl]amino}hexanoic acid]: 6.33. For `CN1CCc2ccc(CN[C@@H](CCC(C)(C)C)C(=O)O)cc2C1=O` [Example 23, (2S)-5,5-dimethyl-2-{[(2-methyl-1-oxo-1,2,3,4-tetrahydroisoquinolin-7-yl)methyl]amino}hexanoic acid], the pIC50 was 6.37. Next, `CN1CCc2cc(CN[C@@H](CCC(C)(C)C)C(=O)O)ccc2C1=O` [Example 24, (2S)-5,5-dimethyl-2-{[(2-methyl-1-oxo-1,2,3,4-tetrahydroisoquinolin-6-yl)methyl]amino}hexanoic acid]: 6.20. Next, `Cc1cc(CN[C@@H](CCC(C)(C)C)C(=O)O)cc2c1CCC2` [Example 26, (2S)-5,5-dimethyl-2-{[(7-methyl-2,3-dihydro-1H-inden-5-yl)methyl]amino}hexanoic acid]: 6.28; `CN1C(=O)CCc2cc(CN[C@@H](CCC(C)(C)C)C(=O)O)ccc21` [Example 27, (2S)-5,5-dimethyl-2-{[(1-methyl-2-oxo-1,2,3,4-tetrahydroquinolin-6-yl)methyl]amino}hexanoic acid]: 6.12; `CC(C)(C)CC[C@H](NCc1ccc2c(c1)NC(=O)CC2)C(=O)O` [Example 29, (2S)-5,5-dimethyl-2-{[(2-oxo-1,2,3,4-tetrahydroquinolin-7-yl)methyl]amino}hexanoic acid]: 6.54. Next, `CC(C)(C)CC[C@H](NCc1ccc2c(c1)CCC(=O)N2)C(=O)O` [Example 31, (2S)-5,5-dimethyl-2-{[(2-oxo-1,2,3,4-tetrahydroquinolin-6-yl)methyl]amino}hexanoic acid]: 6.05; `CC(C)(C)CC[C@H](NCc1ccc2c(c1)N(C(=O)OC(C)(C)C)CCC2)C(=O)O` [Example 32, (2S)-2-[({1-[(tert-butoxy)carbonyl]-1,2,3,4-tetrahydroquinolin-7-yl}methyl)amino]-5,5-dimethylhexanoic acid]: 6.89. `CC(C)(C)CC[C@H](NCc1cccc(-n2cncn2)c1)C(=O)O` [Example 35, (2S)-5,5-dimethyl-2-({[3-(1H-1,2,4-triazol-1-yl)phenyl]methyl}amino)hexanoic acid]: the pIC50 was 6.02. Under `CC(C)(C)CC[C@H](NCc1ccc(Oc2ccccc2)cc1)C(=O)O` [Example 36] stands 6.28; under `CN(C)c1cccc(CN[C@@H](CCC(C)(C)C)C(=O)O)c1` [Example 37, (2S)-2-({[3-(dimethylamino)phenyl]methyl}amino)-5,5-dimethylhexanoic acid], 6.24. `CC(C)(C)CC[C@H](N[C@H](CCO)c1ccccc1)C(=O)O` [Example 40, (2S)-2-{[(1R)-3-hydroxy-1-phenylpropyl]amino}-5,5-dimethylhexanoic acid]: the pIC50 was 5.19. On to `COc1cccc([C@H](CCO)N[C@@H](CCC(C)(C)C)C(=O)O)c1` [Example 41], for which the pIC50 is 6.12. As for `COc1cccc([C@@H](CCO)N[C@@H](CCC(C)(C)C)C(=O)O)c1` [Example 42], the pIC50 was 6.23.

For `CC(C)(C)CC[C@H](NCc1cnc2c(c1)CCCO2)C(=O)O` [Example 53], the pIC50 is 6.24.

In the case of `Cc1cc(CN[C@@H](CCC(C)(C)C)C(=O)O)cc2c1CCCO2` [Example 55], the negative-log IC50 (pIC50) is 6.51.

As for `C[C@H](N[C@@H](CCC(C)(C)C)C(=O)O)c1ccc2c(c1)OCCC2` [Example 57], the pIC50 was 6.52. As to `CC(C)(C)CC[C@H](NCc1cnc2c(c1)OCCO2)C(=O)O` [Example 60], the pIC50 was 6.09. Under `CC(C)(C)CC[C@H](NCc1ccc2c(c1)OCC2)C(=O)O` [Example 62] stands 6.37; under `CC(C)(C)CC[C@H](NCc1cccc2c1CCOC2)C(=O)O` [Example 63], 6.19. Under `C[C@@H](N[C@@H](CCC(C)(C)C)C(=O)O)c1ccc2c(c1)COCC2` [Example 64] stands 6.38. For the compound `CC(C)(C)CC[C@H](NCc1cccc2c1COC2)C(=O)O` [Example 65], the pIC50 was 6.21. Next, `CC(C)(C)CC[C@H](NCc1ccc2c(c1)CCO2)C(=O)O` [Example 66]: 6.15.

As to `CC(C)(C)CC[C@H](NCc1cccc2c1COCC2)C(=O)O` [Example 67], the pIC50 is 6.30.

Turning to `C[C@H](N[C@@H](CCC(C)(C)C)C(=O)O)c1ccc2c(c1)COCC2` [Example 69], the pIC50 is 6.23. Next, `C[C@H](N[C@@H](CCC(C)(C)C)C(=O)O)c1cccc2c1OCCO2` [Example 73]: 6.19; `CC(C)(C)CC[C@H](NCc1cccc2c1CCC2)C(=O)O` [Example 74]: 6.07. `C[C@@H](N[C@@H](CCC(C)(C)C)C(=O)O)c1cccc2c1OCCO2` [Example 75]: the pIC50 was 5.91. For the compound `CC(C)(C)CC[C@H](NCc1cccc(N2CCCC2)c1)C(=O)O` [Example 77], the pIC50 was 6.46.
